Measured values from patent US20250352458A1, “IMPROVEMENTS IN OR RELATING TO EXTRACTS” (Givaudan SA, priority 2020, published 2025).
“And” between values parts separate entries of the source, which are not always exact repeats. Equal entries are not always repeated.

Key:
S. aureus (ATCC 33592) = assay: MIC evaluation, optical density and percentage of inhibition; assay type: cell-based, Staphylococcus aureus
Text: The minimum inhibitory concentration of the following active ingredients has been assessed: • Mangifera indica extract (in propanediol/water 75/25); • Vehicule (propanediol/water 75/25, expressed as Activolo3-75%); • “Pool Mangiferin” which is the pure molecule mangiferin at the same concentration in the Mangifera indica extract in propanediol/water 75/25. • “Pool Mangifera” with is the mix of the 4 molecules (mangiferin, maclurin-C-glucoside, irifluophenone-C-glucoside, gallotanin) at the same concentration in the Mangifera indica extract in propane-diol/water 75/25. S. aureus: The day before the experiment S. aureus (ATCC 33592) was plated and grown overnight at 37° C. Colonies were resuspended in 5 mL of TSB (Tryptic Soy Broth) to obtain a 0.5 McFarland D O (≈1.10^8 CFU/ml) (launch of culture at D-1). […] Concentrations are expressed in % (m/v). […] The diluted bacterial suspension was added to columns 2 to 12. RCB medium was added to column 1 as negative control. Optical density was determined, which correlates to the bacterial growth.

P. acnes (ATCC 6919) = assay: TKC (Time Kill Curve) determination; assay type: cell-based, Propionibacterium acnes
Protocol: Each strain was plated on appropriate plate and grown in the appropriate conditions. Colonies were resuspended in 5 mL of PBS to obtain a 0.5 McFarland O D (approximately 1.10^8 cfu/ml).After two days, the bacterial concentrations we readjusted in reinforced clostridial broth to obtain a solution at 1.10^6 CFU/ml (5.10^4 CFU/well). […] Bacteria quantification has been repeated at […]. For bacteria quantification a Colony counter IUL instruments, flash and go model was used. A Time Kill Curve (TKC) was performed to determine the effect of the active versus placebo on the growth of Propionibacterium acnes.

[1] = tested on: C. granulosum (ATCC 25564); assay: MIC evaluation, optical density and percentage of inhibition; assay type: cell-based, Cutibacterium granulosum
Text: The minimum inhibitory concentration of the following active ingredients has been assessed: • Mangifera indica extract (in propanediol/water 75/25); • Vehicule (propanediol/water 75/25, expressed as Activolo3-75%); • “Pool Mangiferin” which is the pure molecule mangiferin at the same concentration in the Mangifera indica extract in propanediol/water 75/25. • “Pool Mangifera” with is the mix of the 4 molecules (mangiferin, maclurin-C-glucoside, irifluophenone-C-glucoside, gallotanin) at the same concentration in the Mangifera indica extract in propane-diol/water 75/25. […] After two days, the bacterial concentration was adjusted in reinforced clostridial broth to obtain a solution at 1.106 CFU/ml (5.104 CFU/well). […] Concentrations are expressed in % (m/v). […] The diluted bacterial suspension was added to columns 2 to 12. RCB medium was added to column 1 as negative control. Optical density was determined, which correlates to the bacterial growth.

[2] = 0.39 10^−2 % (m/v), plate col. 12
[3] = 0.78 10^−2 % (m/v), plate col. 11
[4] = 1.56 10^−2 % (m/v), plate col. 10
[5] = 3.1310^−2 % (m/v), plate col. 9
[6] = 6.25 10^−2 % (m/v), plate col. 8
[7] = 12.5 10^−2 % (m/v), plate col. 7
[8] = 25.0 10^−2 % (m/v), plate col. 6

For O=c1c2cc(O)c(O)cc2oc2cc(O)c([C@@H]3O[C@H](CO)[C@@H](O)[C@H](O)[C@H]3O)c(O)c12 [pool mangiferin], the “Optical density, S. aureus” value (S. aureus (ATCC 33592); [2]) was 0.387 and 0.392, the “Percentage of inhibition, S. aureus” value (S. aureus (ATCC 33592); [2]) was 3.0% and 1.6% and the “Optical density, S. aureus” value (S. aureus (ATCC 33592); 0.5% (m/v), plate col. 5) was 0.363 and 0.359. For the same compound, the “Percentage of inhibition, S. aureus” value (S. aureus (ATCC 33592); 0.5% (m/v), plate col. 5) was 9.8% and 11.0%, the “Optical density, S. aureus” value (S. aureus (ATCC 33592); [3]) was 0.384 and 0.366 and the “Percentage of inhibition, S. aureus” value (S. aureus (ATCC 33592); [3]) was 3.9% and 9.0%. The “Optical density, S. aureus” value (S. aureus (ATCC 33592); 1% (m/v), plate col. 4) was 0.346 and 0.348, the “Percentage of inhibition, S. aureus” value (S. aureus (ATCC 33592); 1% (m/v), plate col. 4) was 14.7% and 14.1% and the “Optical density, S. aureus” value (S. aureus (ATCC 33592); [4]) was 0.365 and 0.369. The “Percentage of inhibition, S. aureus” value (S. aureus (ATCC 33592); [4]) was 9.3% and 8.1%, the “antibacterial effect on S. aureus (in words)” value (S. aureus (ATCC 33592); 2%) was “slight antibacterial effect” and the “Optical density, S. aureus” value (S. aureus (ATCC 33592); 2% (m/v), plate col. 3) was 0.320 and 0.327. The “Percentage of inhibition, S. aureus” value (S. aureus (ATCC 33592); 2% (m/v), plate col. 3) was 22.1% and 20.1%, the “Optical density, S. aureus” value (S. aureus (ATCC 33592); [5]) was 0.377 and 0.378 and the “Percentage of inhibition, S. aureus” value (S. aureus (ATCC 33592); [5]) was 5.9% and 5.6%. The “Optical density, S. aureus” value (S. aureus (ATCC 33592); [6]) was 0.370 and 0.364, the “Percentage of inhibition, S. aureus” value (S. aureus (ATCC 33592); [6]) was 7.9% and 9.6% and the “Optical density, S. aureus” value (S. aureus (ATCC 33592); [7]) was 0.368 and 0.367. For the same compound, the “Percentage of inhibition, S. aureus” value (S. aureus (ATCC 33592); [7]) was 8.4% and 8.7%, the “Optical density, S. aureus” value (S. aureus (ATCC 33592); [8]) was 0.370 and 0.368 and the “Percentage of inhibition, S. aureus” value (S. aureus (ATCC 33592); [8]) was 7.9% and 8.4%. For the same compound, the “Time Kill Curve P. acnes, bacteria quantification” value (from here on “Time Kill Curve P. acnes”) (P. acnes (ATCC 6919); 0.5%, T0) was 6.0 Log10 CFU/ml, the “Time Kill Curve P. acnes” value (P. acnes (ATCC 6919); 0.5%, T + 4 h) was 6.2 Log10 CFU/ml and the “Time Kill Curve P. acnes” value (P. acnes (ATCC 6919); 0.5%, T + 8 h) was 5.7 Log10 CFU/ml. For the same compound, the “Time Kill Curve P. acnes” value (P. acnes (ATCC 6919); 0.5%, T + 24 h) was 6.6 Log10 CFU/ml, the “Time Kill Curve P. acnes” value (P. acnes (ATCC 6919); 0.5%, T + 32 h) was 6.7 Log10 CFU/ml and the “Time Kill Curve P. acnes” value (P. acnes (ATCC 6919); 0.5%, T + 48 h) was 7.8 Log10 CFU/ml. For the same compound, the “Time Kill Curve P. acnes” value (P. acnes (ATCC 6919); 1%, T0) was 6.0 Log10 CFU/ml, the “Time Kill Curve P. acnes” value (P. acnes (ATCC 6919); 1%, T + 4 h) was 6.0 Log10 CFU/ml and the “Time Kill Curve P. acnes” value (P. acnes (ATCC 6919); 1%, T + 8 h) was 5.8 Log10 CFU/ml. For the same compound, the “Time Kill Curve P. acnes” value (P. acnes (ATCC 6919); 1%, T + 24 h) was 6.5 Log10 CFU/ml, the “Time Kill Curve P. acnes” value (P. acnes (ATCC 6919); 1%, T + 32 h) was 6.7 Log10 CFU/ml and the “Time Kill Curve P. acnes” value (P. acnes (ATCC 6919); 1%, T + 48 h) was 7.8 Log10 CFU/ml. For the same compound, the “Time Kill Curve P. acnes” value (P. acnes (ATCC 6919); 2%, T0) was 6.0 Log10 CFU/ml, the “Time Kill Curve P. acnes” value (P. acnes (ATCC 6919); 2%, T + 4 h) was 5.7 Log10 CFU/ml and the “Time Kill Curve P. acnes” value (P. acnes (ATCC 6919); 2%, T + 8 h) was 5.7 Log10 CFU/ml. The “Time Kill Curve P. acnes” value (P. acnes (ATCC 6919); 2%, T + 24 h) was 6.5 Log10 CFU/ml, the “Time Kill Curve P. acnes” value (P. acnes (ATCC 6919); 2%, T + 32 h) was 6.7 Log10 CFU/ml and the “Time Kill Curve P. acnes” value (P. acnes (ATCC 6919); 2%, T + 48 h) was 7.8 Log10 CFU/ml. The “Optical density, C. granulosum” value [1, 2] was 0.546 and 0.539, the “Percentage of inhibition, C. granulosum” value [1, 2] was 0.5% and 1.9% and the “Optical density, C. granulosum” value ([1]; 0.5% (m/v), plate col. 5) was 0.449 and 0.457. For the same compound, the “Percentage of inhibition, C. granulosum” value ([1]; 0.5% (m/v), plate col. 5) was 19.9% and 18.3%, the “Optical density, C. granulosum” value [1, 3] was 0.561 and the “Percentage of inhibition, C. granulosum” value [1, 3] was 0%. The “Optical density, C. granulosum” value ([1]; 1% (m/v), plate col. 4) was 0.417 and 0.419, the “Percentage of inhibition, C. granulosum” value ([1]; 1% (m/v), plate col. 4) was 26.3% and 25.9% and the “Optical density, C. granulosum” value [1, 4] was 0.573 and 0.570. The “Percentage of inhibition, C. granulosum” value [1, 4] was 0%, the “Optical density, C. granulosum” value ([1]; 2% (m/v), plate col. 3) was 0.391 and 0.398 and the “Percentage of inhibition, C. granulosum” value ([1]; 2% (m/v), plate col. 3) was 31.5% and 30.1%. For the same compound, the “Optical density, C. granulosum” value [1, 5] was 0.592 and 0.558, the “Percentage of inhibition, C. granulosum” value [1, 5] was 0% and the “Optical density, C. granulosum” value [1, 6] was 0.545. The “Percentage of inhibition, C. granulosum” value [1, 6] was 0.7%, the “Optical density, C. granulosum” value [1, 7] was 0.505 and 0.520 and the “Percentage of inhibition, C. granulosum” value [1, 7] was 8.7% and 5.7%. The “Optical density, C. granulosum” value [1, 8] was 0.479 and 0.478, the “Percentage of inhibition, C. granulosum” value [1, 8] was 13.9% and 14.1% and the “antibacterial effect against C. granulosum (in words)” value ([1]; at 2%) was “slight antibacterial effect”.
